Drawing on patent publication US20230416205A1, “COMPOUNDS, COMPOSITIONS, AND METHODS” (Denali Therapeutics Inc, priority 2020, published 2023), this text covers IC50 for 22 molecules.

This experiment deals with NLRP3. Put plainly: IL-1β secretion assay in PMA-differentiated, LPS/nigericin-stimulated THP-1 cells (384-well, ELISA read-out). It counts as cell-based, human. The procedure: Compounds as provided herein were tested in the following assay. Cell culture medium employed contained RPMI 1640 medium (89%), FBS (10%), Pen/Strep (1%), and 2-mercaptoethanol (0.05 mM). Freezing medium was made up of 90% FBS and 10% DMSO. THP-1 cells were removed from the liquid nitrogen and placed into a 37° C. water bath to thaw, until signs of ice dissipated. The cells were then added to 9 mL of warm cell culture medium and centrifuged for 5 minutes at 1000 rpm. The supernatant was discarded, and the cells were resuspended in new cell culture medium. THP-1 cells were then split and cultured in the cell culture medium, being passaged every 2-3 days with the cell density will be maintained between 5×10^5 and 1.5×10^6 viable cells/mL.
To freeze, cells were resuspended with fresh freezing medium, adjusting the cell density to 5×10^6 cells/mL. The cell suspension was partitioned into 1 mL aliquots per vial, and the vials were transferred to a −80° C. freezer. After one day at −80° C., the cell vials were transferred to liquid nitrogen freezer for storage.
PMA was dissolved in DMSO to make a stock solution at 5 mg/mL and stored in 10 μl aliquots at −20° C. for single use. PMA is added to normal growth medium. LPS was diluted with 1 mL of water solution to provide a 1 mg/mL stock solution and stored in 15 μl aliquots at −20° C. for single use. Nigericin is diluted in ice cold 100% ethanol to 5 mg/mL (6.7 mM) and stored in 75 μL aliquots at −20° C. for single use. Serum-free media contains RPMI 1640 medium (99%), Pen/Strep (1%), and 2-mercaptoethanol (0.05 mM). The two control conditions used to qualify and normalize test compound dose-response curves were as follows: High Control=25 ng/mL LPS, 5 μM Nigericin, 0.5% DMSO, Low Control=25 ng/mL, LPS, 0.5% DMSO.
THP-1 cells were diluted to provide a suspension at a concentration of 1.0×10^6 cells/mL with the total volume of suspension required to enable the desired number of assay plates. The growth media was supplemented with PMA (5 ng/mL final concentration) and the cells were incubated at 37° C. under a humidified atmosphere of 5% CO2 for 40 h.
All media was carefully aspirated from each culture flask. The cells were washed carefully with 1×DPBS. The cells were then briefly digested with trypsin LE for 5 minutes at 23° C., and immediately resuspended in cell growth media. After resuspension, the cells were centrifuged at 1000 rpm for 3 minutes and the supernatant was discarded. The cells were resuspended in DPBS and once again centrifuged at 1000 rpm for 5 minutes. The supernatant was discarded and the cell pellet was resuspended in serum-free media supplemented with LPS (25 ng/mL final concentration) to enable the distribution of 30K THP-1 cells within 45 μL of media into each well of 384-well PDL-coated plates. The 384-well plates were then incubated at 37° C. under a humidified atmosphere of 5% CO2 for 2 h. Following this period, test compounds were dispensed by Tecan across the desired concentration range with all wells normalized to a final 0.5% DMSO concentration. The plates were then incubated at 37° C. under a humidified atmosphere of 5% CO2 for 1 h. Following this period, 5 μL of the […] was added to each of the appropriate wells and plates were centrifuged at 1000 rpm for 30 seconds. The plates were the immediately reintroduced to the incubator at 37° C. under a humidified atmosphere of 5% CO2 for 2 h. After this time, 35 μL/well of supernatant was collected and transferred into v-bottom plate and centrifuged at 1000 rpm for 1 minute. These supernatant aliquots were analyzed using an IL-Iβ detection kit as described below. If needed, the test samples could be snap frozen and stored at −80° C. until analyzed.
To prepare each ELISA plate, capture antibody (mAb Mt175) was diluted with PBS to a final concentration of 2 μg/mL and then 20 μL of this solution was added to each well of the ELISA plate. Each plate was allowed to incubate overnight at 4° C.
(In general: An ELISA detects its analyte on a solid surface through an enzyme-linked reagent.)

Setting [1] is: Homo sapiens, THP-1, IL-1β secretion, PMA-differentiated THP-1 cells, LPS then nigericin stimulation, ELISA read at 450 nm, read-out: Activity.
Setting [2] is: Homo sapiens, THP-1, Table 4, IL-1β secretion, LPS/nigericin-stimulated THP-1 cells, read-out: IC50.
Where [3] appears, read: Table 4, IL-1β secretion, LPS/nigericin-stimulated THP-1 cells, read-out: IC50.

Where two headings read alike, the source gives them in different places.

Turning to `N#Cc1cnc(NC(=O)CN2CC3(CC3)c3c(ccc(Br)c3F)C2=O)c(F)c1` [Example 106, 2-(6-bromo-5-fluoro-1-oxospiro[3H-isoquinoline-4,1′-cyclopropane]-2-yl)-N-(5-cyano-3-fluoropyridin-2-yl)acetamide], the IC50 reads like this: under setting [1], under 10 µM; under setting [2], 0.156 µM. For `O=C(CN1CC(C(F)(F)F)c2cc(I)ccc2C1=O)Nc1ncc(F)cn1` (stereo not shown) [Example 301, N-(5-fluoropyrimidin-2-yl)-2-[6-iodo-1-oxo-4-(trifluoromethyl)-3,4-dihydroisoquinolin-2-yl]acetamide] the same measures were under 10 µM and 0.027 µM.

In the case of `O=C(CN1CC2(CC2)c2cc(C(F)(F)F)ccc2C1=O)Nc1ncc(F)cn1` [Example 28], the IC50 is under 10 µM under setting [1] and 0.373 µM under setting [2]. Take `O=C(CN1CC2(CC2)c2cc(Br)ccc2C1=O)Nc1ncncn1` [Example 192, 2-(6-bromo-1-oxospiro[3H-isoquinoline-4,1′-cyclopropane]-2-yl)-N-(1,3,5-triazin-2-yl)acetamide]: the IC50 by setting is: under setting [1], under 10 µM; under setting [2], 0.309 µM.

As to `N#Cc1cnc(NC(=O)CN2CC3(CC3)c3cc(C(F)(F)F)ccc3C2=O)c(F)c1` [Example 85, N-(5-cyano-3-fluoropyridin-2-yl)-2-[1-oxo-6-(trifluoromethyl)spiro[3H-isoquinoline-4,1′-cyclopropane]-2-yl]acetamide], the IC50 is, setting by setting: under setting [1], under 10 µM; under setting [2], 0.992 µM. For `Cc1cc(C)nc(NC(=O)CN2CC3(CC3)c3cc(Br)ccc3C2=O)c1` [Example 150, 2-(6-bromo-1-oxospiro[3H-isoquinoline-4,1′-cyclopropane]-2-yl)-N-(4,6-dimethylpyridin-2-yl)acetamide] the same measures were under 10 µM and 2.1 µM. For `Cn1ncnc1NC(=O)CN1CC2(CC2)c2cc(Br)ccc2C1=O` [Example 218, 2-(6-bromo-1-oxospiro[3H-isoquinoline-4,1′-cyclopropane]-2-yl)-N-(2-methyl-1,2,4-triazol-3-yl)acetamide], the IC50 is under 10 µM under setting [1] and 9.18 µM under setting [2]. For `O=C(CN1CC2(CC2)c2cc(Br)ccc2C1=O)Nc1ccc2c(c1)CCO2` [Example 135, 2-(6-bromo-1-oxospiro[3H-isoquinoline-4,1′-cyclopropane]-2-yl)-N-(2,3-dihydro-1-benzofuran-5-yl)acetamide] the same measures were under 10 µM and 1.22 µM. For `O=C(CN1CC2(CC2)c2cc(Br)ccc2C1=O)Nc1nc2ccncc2o1` [Example 212, 2-(6-bromo-1-oxo-spiro[3H-isoquinoline-4,1′-cyclopropane]-2-yl)-N-oxazolo[5,4-c]pyridin-2-yl-acetamide] the same measures were under 10 µM and 0.589 µM.

For `COc1cccnc1NC(=O)CN1CC2(CC2)c2cc(Br)ccc2C1=O` [Example 407, 2-(6-bromo-1-oxospiro[3H-isoquinoline-4,1′-cyclopropane]-2-yl)-N-(3-methoxypyridin-2-yl)acetamide], the IC50 under setting [2] is 4.28 µM.

On to `CN1CC(NC(=O)CN2CC3(CC3)c3cc(Br)ccc3C2=O)CC1=O` (stereo not shown) [Example 59, 2-(6-bromo-1-oxo-spiro[3H-isoquinoline-4,1′-cyclopropane]-2-yl)-N-(1-methyl-5-oxo-pyrrolidin-3-yl)acetamide], for which the IC50 runs as follows: under setting [1], over 15 µM; under setting [2], 18.3 µM. For `CC1(C)CN(CC(=O)Nc2ncc(F)cn2)C(=O)c2ccc(Br)cc21` [Example 178, 2-(6-bromo-4,4-dimethyl-1-oxo-3H-isoquinolin-2-yl)-N-(5-fluoropyrimidin-2-yl)acetamide] the same measures were under 10 µM and 1.05 µM. For `Cc1cc(NC(=O)CN2CC3(CC3)c3cc(Br)ccc3C2=O)n(-c2ccccc2)n1` [Example 149, 2-(6-bromo-1-oxospiro[3H-isoquinoline-4,1′-cyclopropane]-2-yl)-N-(5-methyl-2-phenylpyrazol-3-yl)acetamide] the same measures were under 10 µM and 6.58 µM. Regarding `O=C(CN1CC2(CC2(F)F)c2c(ccc(Br)c2F)C1=O)Nc1ncc(F)cn1` (single isomer, unassigned) [Example 288, N-(5-fluoropyrimidin-2-yl)-2-[6-bromo-1′,1′,5-trifluoro-1-oxospiro[3H-isoquinoline-4,2′-cyclopropane]-2-yl]acetamide], the IC50 is 10 to 15 µM under setting [1] and 15.4 µM under setting [3]. For the molecule `O=C(CN1CC2(CC2)c2cc(Br)ccc2C1=O)NC1CCN(CCC(F)(F)F)CC1` [Example 366, 2-(6-bromo-1-oxospiro[3H-isoquinoline-4,1′-cyclopropane]-2-yl)-N-[1-(3,3,3-trifluoropropyl)piperidin-4-yl]acetamide], the IC50 under setting [2] stood at 19 µM. With `CC(C)n1cnc(NC(=O)CN2CC3(CC3)c3cc(Br)ccc3C2=O)n1` [Example 421, 2-(6-bromo-1-oxospiro[3H-isoquinoline-4,1′-cyclopropane]-2-yl)-N-(1-propan-2-yl-1,2,4-triazol-3-yl)acetamide], the IC50 under setting [2] is 2.73 µM.

Take `C[C@H]1C[C@]12CN(CC(=O)Nc1ncc(F)cn1)C(=O)c1ccc(Br)cc12` (single isomer, unassigned) [Example 279, 2-[(2′s,4s)-6-bromo-2′-methyl-1-oxospiro[3H-isoquinoline-4,1′-cyclopropane]-2-yl]-N-(5-fluoropyrimidin-2-yl)acetamide]: the IC50 runs as follows: under setting [1], over 15 µM; under setting [3], 22.4 µM. Consider `CN1CC(NC(=O)CN2CC3(CC3)c3cc(Br)ccc3C2=O)CCC1=O` (stereo not shown) [Example 21, 2-(6-bromo-1-oxo-spiro[3H-isoquinoline-4,1′-cyclopropane]-2-yl)-N-(1-methyl-6-oxo-3-piperidyl)acetamide], for which the IC50 was under 10 µM under setting [1] and 6.1 µM under setting [2]. For `O=C(CN1CC2(CC2)c2cc(Br)ccc2C1=O)Nc1ccc2ccncc2c1` [Example 191, 2-(6-bromo-1-oxospiro[3H-isoquinoline-4,1′-cyclopropane]-2-yl)-N-isoquinolin-7-ylacetamide] the same measures were under 10 µM and 1.15 µM. For `Cn1cc(NC(=O)CN2CC3(CC3)c3cc(Br)ccc3C2=O)ccc1=O` [Example 73, 2-(6-bromo-1-oxo-spiro[3H-isoquinoline-4,1′-cyclopropane]-2-yl)-N-(1-methyl-6-oxo-3-pyridyl)acetamide] the same measures were 10 to 15 µM and 11.5 µM. For `O=C(CN1C[C@@]2(C[C@@H]2F)c2c(ccc(C3CC3)c2F)C1=O)Nc1ncc(Cl)cn1` (single isomer, unassigned) [Example 229, 2-[(2′s,4r)-6-cyclopropyl-2′,5-difluoro-1-oxospiro[3H-isoquinoline-4,1′-cyclopropane]-2-yl]-N-(5-chloropyrimidin-2-yl)acetamide] the same measures were under 10 µM and 0.032 µM.

Consider `O=C(CN1CC2(CC2)c2c(ccc(C3(F)CC3)c2F)C1=O)Nc1ncc(F)cn1` [Example 307, 2-[5-fluoro-6-(1-fluorocyclopropyl)-1-oxospiro[3H-isoquinoline-4,1′-cyclopropane]-2-yl]-N-(5-fluoropyrimidin-2-yl)acetamide], for which the IC50 under setting [2] worked out at 0.898 µM.
